Among the data in patent publication US20080027042A1, “Novel Aminopyridine Derivatives Having Aurora a Selective Inhibitory Action” (priority 2004, published 2008) are IC50 values, retold here.

SMILES strings stand for the structures. pIC50: −log10 of the molar value. Structures can show the parent of a compound that is named as a salt.

One assay concerns the target T1, Aurora B (Homo sapiens, UniProt Q96GD4).
T1 construct: histidine tag (N); made in house; host or cells: Escherichia coli BL21-CodonPlus(DE3)-RIL
The assay is described as follows: Aurora B inhibitory action (33P-ATP kinase assay, Kemptide substrate). The assay is classed as biochemical. To be noted: 100 μM ATP, 30° C., 20 minutes. The source says:
Aurora B Inhibitory Action
(1) Purification of Aurora B
cDNA of Aurora B having histidine tag fused at the amino terminal was integrated into an expression vector, which was then highly expressed in Escherichia coli BL21-CodonPlus(DE3)-RIL cells. The Escherichia coli cells were recovered and solubilized, and then the histidine-tagged […] protein was adsorbed onto a nickel chelate column and eluted from the column with imidazole. The active fraction was desalted with a desalting column to give a pure enzyme.
(2) Measurement of Activity of Aurora B
For measurement of the activity of Aurora B, the substrate used was Kemptide (Lys-Arg-Arg-Ala-Ser-Lys-Gly) (SEQ.ED.NO.: 1), a synthetic peptide purchased from Sigma-Aldrich, Inc. [Certificate of analysis (Upstate, Inc.)].
Reaction was conducted by a partial modification of the method of activity measurement for Aurora A. The amount of the reaction liquid was 21.1 μL, and the composition of the reaction buffer (R2 buffer) was 50 mM Tris-hydrochloride buffer (pH 7.4)/15 mM magnesium acetate/0.2 mM ethylenediamine-N,N,N′,N′-tetraacetate (EDTA). To this, purified Aurora B, 100 μM of a substrate peptide, 100 μM of unlabeled adenosine triphosphate (ATP) and 1 μCi of [γ-^33P] labeled ATP (2,500 Ci/mmole or more) were added, and the mixture was reacted at 30° C. for 20 minutes. Then, 10 μL of 350 mM phosphate buffer was added to the reaction system to stop the reaction. The substrate peptide was adsorbed on a P81 paper filter 96-well plate and then washed with 130 mM phosphate buffer for several times. The radiation activity of the peptide was measured with a liquid scintillation counter. The [γ-^33P] labeled ATP was purchased from Amersham Biosciences Co., Ltd.
(§1) The compound to be tested was added to the reaction system such that a dilution series of the compound in dimethylsulfoxide was first prepared, and 1.1 μL of this solution was added. A control was provided by adding 1.1 μL of DMSO to the reaction system.

The next assay concerns the target T2, Aurora A (Homo sapiens, UniProt O14965).
T2 construct: histidine tag (N); made in house; host or cells: Escherichia coli BL21-CodonPlus(DE3)-RIL
T2 sequence (O14965 1-403): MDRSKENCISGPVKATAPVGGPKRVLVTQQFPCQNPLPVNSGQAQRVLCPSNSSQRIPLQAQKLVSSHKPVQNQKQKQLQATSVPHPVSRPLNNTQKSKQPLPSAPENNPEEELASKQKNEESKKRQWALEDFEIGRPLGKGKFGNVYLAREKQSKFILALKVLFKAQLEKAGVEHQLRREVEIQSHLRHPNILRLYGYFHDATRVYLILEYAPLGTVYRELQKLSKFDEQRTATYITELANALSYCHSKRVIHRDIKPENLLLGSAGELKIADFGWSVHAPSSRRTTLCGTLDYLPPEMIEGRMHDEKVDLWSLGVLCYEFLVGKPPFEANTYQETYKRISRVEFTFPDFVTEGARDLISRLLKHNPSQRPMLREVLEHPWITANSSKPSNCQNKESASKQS
The assay is described as follows: Aurora A inhibitory action (33P-ATP kinase assay, Kemptide substrate). It counts as biochemical. The settings on record: 20 μM ATP, 30° C., 20 minutes.
Source text: Aurora A Inhibitory Action
(1) Purification of Aurora A
cDNA of Aurora A having histidine tag fused at the amino terminal was integrated into an expression vector, which was then highly expressed in Escherichia coli BL2 1-CodonPlus(DE3)-RIL cells. The Escherichia coli cells were recovered and solubilized, and then the histidine-tagged Aurora A protein was adsorbed onto a nickel chelate column and eluted from the column with imidazole. The active fraction was desalted with a desalting column to give a pure enzyme.
(2) Measurement of Activity of Aurora A
For measurement of the activity of Aurora A, the substrate used was Kemptide (Lys-Arg-Arg-Ala-Ser-Lys-Gly) (SEQ.ID.NO.: 1), a synthetic peptide purchased from Sigma-Aldrich, Inc. [Certificate of analysis (Upstate, Inc.)].
Reaction was conducted by a partial modification of a method by Upstate, Inc. [Kinase Profiler™ Assay Protocols]. The amount of the reaction liquid was 21.1 μL, and the composition of the reaction buffer (R2 buffer) was 50 mM Tris-hydrochloride buffer (pH 7.4)/15 mM magnesium acetate/0.2 mM ethylenediamine-N,N,N′,N′-tetraacetate (EDTA). To this, purified Aurora A, 100 μM of a substrate peptide, 20 μM of unlabeled adenosine triphosphate (ATP) and 0.5 μCi of [γ-^33P] labeled ATP (2,500 Ci/mmole or more) were added, and the mixture was reacted at 30° C. for 20 minutes. Then, 10 μL of 350 mM phosphate buffer was added to the reaction system to stop the reaction. The substrate peptide was adsorbed on a P81 paper filter 96-well plate and then washed with 130 mM phosphate buffer for several times. The radiation activity of the peptide was measured with a liquid scintillation counter. The [γ-^33P] labeled ATP was purchased from Amersham Biosciences Co., Ltd.
as §1

T1 sequence (Q96GD4 whole entry): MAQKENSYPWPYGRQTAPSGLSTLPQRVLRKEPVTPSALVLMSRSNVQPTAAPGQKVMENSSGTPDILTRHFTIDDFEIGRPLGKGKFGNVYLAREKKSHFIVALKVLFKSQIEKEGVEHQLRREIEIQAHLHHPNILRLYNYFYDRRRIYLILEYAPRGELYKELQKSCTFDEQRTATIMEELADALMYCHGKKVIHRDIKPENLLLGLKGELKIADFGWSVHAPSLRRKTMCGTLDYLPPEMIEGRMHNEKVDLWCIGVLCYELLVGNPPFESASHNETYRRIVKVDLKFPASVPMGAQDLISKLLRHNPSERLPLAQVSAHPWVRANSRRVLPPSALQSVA

Broadly, the pIC50 is the IC50 on a negative log10 scale, so that one unit is a factor of ten. High values mean a small IC50, low ones a large IC50. As for `Cc1cc(Nc2cccc(CN3C[C@@H]4C[C@H]3CN4C(=O)c3cccc(Cl)c3F)n2)n[nH]1` [Example 27, 6-(((1S,4S)-5-(3-chloro-2-fluorobenzoyl)-2,5-diazabicyclo[2.2.1]hept-2-yl)methyl)-N-(5-methyl-1H-pyrazol-3-yl)pyridin-2-amine], the negative-log IC50 (pIC50) is 5.77 on Aurora B and 8.48 against Aurora A.
Take `O=C(c1cccc(Br)c1F)N1CCN(Cc2cncc(Nc3cc[nH]n3)n2)CC1` [Example 49, 6-((4-(3-bromo-2-fluorobenzoyl)piperazin-1-yl)methyl)-N-1H-pyrazol-3-ylpyrazin-2-amine trifluoroacetate]: the pIC50 against Aurora B is 5.36; against Aurora A, 8.85.
For the molecule `CS(=O)(=O)Cc1cc(CN2CCN(C(=O)c3cccc(Cl)c3F)CC2)nc(Nc2nccs2)c1` [Example 93, 6-((4-(3-chloro-2-fluorobenzoyl)piperazin-1-yl)methyl)-4-((methanesulfonyl)methyl)-N-thiazol-2-ylpyridin-2-amine], the results for the pIC50 at Aurora B and at Aurora A were 6.60 and 9.44, respectively.
As for `O=C(c1cccc(Cl)c1F)N1CCN(Cc2cc(Br)cc(Nc3nccs3)n2)CC1` [Example 81, 4-bromo-6-((4-(3-chloro-2-fluorobenzoyl)piperazin-1-yl)methyl)-N-thiazol-2-ylpyridin-2-amine], the figures for the pIC50 against Aurora B and against Aurora A were 6.52 and 9.48, respectively.
In the case of `CS(=O)(=O)c1cccc(C(=O)N2CCN(Cc3cccc(Nc4ncc(Cl)s4)n3)CC2)c1` [Example 74, 6-((4-(3-(methanesulfonyl)benzoyl)piperazin-1-yl)methyl)-N-(5-chlorothiazol-2-yl)pyridin-2-amine], the figures for the pIC50 against Aurora B and against Aurora A were 6.07 and 7.33, respectively.
The like results for `O=C(Cc1ccc(Cl)c(Cl)c1)N1CCN(Cc2cccc(Nc3cc[nH]n3)n2)CC1` [Example 21, 6-((4-((3,4-dichlorophenyl)acetyl)piperazin-1-yl)methyl)-N-1H-pyrazol-3-ylpyridin-2-amine trifluoroacetate] were, in that order, 5.17 and 7.80.
In the case of `NC(=O)c1cc(CN2CCN(C(=O)c3cccc(Cl)c3F)CC2)nc(Nc2nccs2)c1` [Example 87, 2-((4-(3-chloro-2-fluorobenzoyl)piperazin-1-yl)methyl)-6-(thiazol-2-ylamino)isonicotinamide trifluoroacetate], the pIC50 is 5.85 against Aurora B and 8.92 on Aurora A.
On to `O=C(c1cccc(Cl)c1F)N1CCN(Cc2cc(-c3nn[nH]n3)cc(Nc3nccs3)n2)CC1` [Example 105, 6-((4-(3-chloro-2-fluorobenzoyl)piperazin-1-yl)methyl)-4-(2H-tetrazol-5-yl)-N-thiazol-2-ylpyridin-2-amine], for which the negative-log IC50 (pIC50) against Aurora B was 6.00; against Aurora A, 8.85.
On to `O=C(c1ccoc1)N1CCN(Cc2cccc(Nc3ncc(Cl)s3)n2)CC1` [Example 61, 6-((4-(3-furoyl)piperazin-1-yl)methyl)-N-(5-chlorothiazol-2-yl)pyridin-2-amine], for which the figures for the pIC50 at Aurora B and against Aurora A were 6.28 and 7.77, respectively.
Regarding `Cc1nc(-c2cc(CN3CCN(C(=O)c4cccc(Cl)c4F)CC3)nc(Nc3nccs3)c2)no1` [Example 109, 6-((4-(3-chloro-2-fluorobenzoyl)piperazin-1-yl)methyl)-4-(5-methyl-1,2,4-oxadiazol-3-yl)-N-thiazol-2-ylpyridin-2-amine], the figures for the negative-log IC50 (pIC50) against Aurora B and at Aurora A were 6.28 and 9.38, respectively.
Consider `O=C(c1ccsc1)N1CCN(Cc2cccc(Nc3ncc(Cl)s3)n2)CC1` [Example 65, 6-((4-(3-thienylcarbonyl)piperazin-1-yl)methyl)-N-(5-chlorothiazol-2-yl)pyridin-2-amine], for which the figures for the pIC50 at Aurora B and at Aurora A were 6.80 and 8.62, respectively.
For `O=C(c1cccc(Cl)c1F)N1CCN(Cc2cc(N3CCCC3=O)cc(Nc3nccs3)n2)CC1` [Example 96, 1-(2-((4-(3-chloro-2-fluorobenzoyl)piperazin-1-yl)methyl)-6-(thiazol-2-ylamino)pyridin-4-yl)pyrrolidin-2-one], the pIC50 at Aurora B was 6.16; against Aurora A, 9.24.
Consider `CN(C)Cc1cc(CN2CCN(C(=O)c3cccc(Cl)c3F)CC2)nc(Nc2nccs2)c1` [Example 94, 6-((4-(3-chloro-2-fluorobenzoyl)piperazin-1-yl)methyl)-4-((dimethylamino)methyl)-N-thiazol-2-ylpyridin-2-amine], for which the pIC50 was 5.96 on Aurora B and 8.96 at Aurora A.
`O=C(c1cccc(C(F)(F)F)c1Cl)N1CCN(Cc2cncc(Nc3cc[nH]n3)n2)CC1` [Example 51, 6-((4-(2-chloro-3-(trifluoromethyl)benzoyl)piperazin-1-yl)methyl)-N-1H-pyrazol-3-ylpyrazin-2-amine trifluoroacetate]: the pIC50 was 6.03 against Aurora B and 9.01 on Aurora A.
Taken in the same sequence, the figures for `O=C(c1cccc(C(F)(F)F)c1F)N1CCN(Cc2cncc(Nc3cc[nH]n3)n2)CC(O)C1` (stereo not shown) [Example 55, 6-((4-(2-fluoro-3-(trifluoromethyl)benzoyl)-6-hydroxy-1,4-diazepan-1-yl)methyl)-N-1H-pyrazol-3-ylpyrazin-2-arnine] were 5.13 and 7.70.
For `O=C(c1cccc(C(F)(F)F)c1Cl)N1CCN(Cc2cccc(Nc3cc[nH]n3)n2)CC1` [Example 18, 6-((4-(2-chloro-3-(trifluoromethyl)benzoyl)piperazin-1-yl)methyl)-N-1H-pyrazol-3-ylpyridin-2-amine trifluoroacetate], the pIC50 against Aurora B is 6.08; against Aurora A, 8.74.
For `O=C(c1cccc(Cl)c1F)N1CCN(Cc2cc(N3CCOC3=O)cc(Nc3nccs3)n2)CC1` [Example 97, 3-(2-((4-(3-chloro-2-fluorobenzoyl)piperazin-1-yl)methyl)-6-(thiazol-2-ylamino)pyridin-4-yl)-1,3-oxazolidin-2-one], the pIC50 is 6.08 at Aurora B and 9.21 at Aurora A.
For `COC(=O)c1cc(CN2CCN(C(=O)c3cccc(Cl)c3F)CC2)nc(Nc2nccs2)c1` [Example 82, methyl 2-((4-(3-chloro-2-fluorobenzoyl)piperazin-1-yl)methyl)-6-(thiazol-2-ylamino)isonicotinate], the pIC50 against Aurora B is 6.68; against Aurora A, 9.29.
Regarding `Cc1noc(-c2cc(CN3CCN(C(=O)c4cccc(Cl)c4F)CC3)nc(Nc3nccs3)c2)n1` [Example 110, 6-((4-(3-chloro-2-fluorobenzoyl)piperazin-1-yl)methyl)-4-(3-methyl-1,2,4-oxadiazol-5-yl)-N-thiazol-2-ylpyridin-2-amine], the values for the pIC50 at Aurora B and against Aurora A were 6.12 and 9.23, respectively.
Take `O=C(c1cccc(C(F)(F)F)c1)N1CCN(Cc2cccc(Nc3ncns3)n2)CC1` [Example 37, 6-((4-(3-(trifluoromethyl)benzoyl)piperazin-1-yl)methyl)-N-1,2,4-thiadiazol-5-ylpyridin-2-amine]: the results for the pIC50 against Aurora B and on Aurora A were 5.06 and 8.31, respectively.
